Literature values, collected in US12208061B2 (EXORAO LIFE SCIENCE S.R.L., priority 2019, dated 2025).
Read-outs that look alike come from different tables or passages of the source.

How the values were obtained:
[1] = tested on: gram-positive bacteria or anaerobes; conditions: against gram-positive bacteria or anaerobes
[2] = tested on: gram-negative aerobic pathogens including Pseudomonas aeruginosa; conditions: in vitro
[3] = solution for intravenous infusion

time within which reconstituted solution should be used ([3]; controlled room temperature): ≤ 48 h | time within which reconstituted solution should be used ([3]; refrigerated at 2° C. to 8° C.): within seven days
SMILES: C[C@H]1[C@H](NC(=O)/C(=N\OC(C)(C)C(=O)O)c2csc(N)n2)C(=O)N1S(=O)(=O)O [Aztreonam, (Z)-2-[[[(2-amino-4-thiazolyl)[[(2S,3S)-2-methyl-4-oxo-1-sulfo-3-azetidinyl]carbamoyl]methylene]amino]oxy]-2-methylpropionic acid]
antimicrobial activity [1]: no useful activity | pH range over which antimicrobial activity is maintained [2]: 6 to 8
